The record followed here is publication PMC10144222 (Marine Drugs, 2023).

Data set [1] is classed as physicochemical. Conditions: pH 7.4.
The target of data set [2] is Cav2.2 channel (Homo sapiens, UniProt Q00975). The experiment in a line: cell-based. It counts as cell-based.
Data set [3] relates to coordinated locomotion in mice. The following applies: mouse, in vivo.
The subject of data set [4] is tremor in mice. The following applies: mouse, in vivo.
A short description of data set [5]: in vitro. Conditions: human, serum.

Chain of Cav2.2 channel (Q00975 whole entry, looked up): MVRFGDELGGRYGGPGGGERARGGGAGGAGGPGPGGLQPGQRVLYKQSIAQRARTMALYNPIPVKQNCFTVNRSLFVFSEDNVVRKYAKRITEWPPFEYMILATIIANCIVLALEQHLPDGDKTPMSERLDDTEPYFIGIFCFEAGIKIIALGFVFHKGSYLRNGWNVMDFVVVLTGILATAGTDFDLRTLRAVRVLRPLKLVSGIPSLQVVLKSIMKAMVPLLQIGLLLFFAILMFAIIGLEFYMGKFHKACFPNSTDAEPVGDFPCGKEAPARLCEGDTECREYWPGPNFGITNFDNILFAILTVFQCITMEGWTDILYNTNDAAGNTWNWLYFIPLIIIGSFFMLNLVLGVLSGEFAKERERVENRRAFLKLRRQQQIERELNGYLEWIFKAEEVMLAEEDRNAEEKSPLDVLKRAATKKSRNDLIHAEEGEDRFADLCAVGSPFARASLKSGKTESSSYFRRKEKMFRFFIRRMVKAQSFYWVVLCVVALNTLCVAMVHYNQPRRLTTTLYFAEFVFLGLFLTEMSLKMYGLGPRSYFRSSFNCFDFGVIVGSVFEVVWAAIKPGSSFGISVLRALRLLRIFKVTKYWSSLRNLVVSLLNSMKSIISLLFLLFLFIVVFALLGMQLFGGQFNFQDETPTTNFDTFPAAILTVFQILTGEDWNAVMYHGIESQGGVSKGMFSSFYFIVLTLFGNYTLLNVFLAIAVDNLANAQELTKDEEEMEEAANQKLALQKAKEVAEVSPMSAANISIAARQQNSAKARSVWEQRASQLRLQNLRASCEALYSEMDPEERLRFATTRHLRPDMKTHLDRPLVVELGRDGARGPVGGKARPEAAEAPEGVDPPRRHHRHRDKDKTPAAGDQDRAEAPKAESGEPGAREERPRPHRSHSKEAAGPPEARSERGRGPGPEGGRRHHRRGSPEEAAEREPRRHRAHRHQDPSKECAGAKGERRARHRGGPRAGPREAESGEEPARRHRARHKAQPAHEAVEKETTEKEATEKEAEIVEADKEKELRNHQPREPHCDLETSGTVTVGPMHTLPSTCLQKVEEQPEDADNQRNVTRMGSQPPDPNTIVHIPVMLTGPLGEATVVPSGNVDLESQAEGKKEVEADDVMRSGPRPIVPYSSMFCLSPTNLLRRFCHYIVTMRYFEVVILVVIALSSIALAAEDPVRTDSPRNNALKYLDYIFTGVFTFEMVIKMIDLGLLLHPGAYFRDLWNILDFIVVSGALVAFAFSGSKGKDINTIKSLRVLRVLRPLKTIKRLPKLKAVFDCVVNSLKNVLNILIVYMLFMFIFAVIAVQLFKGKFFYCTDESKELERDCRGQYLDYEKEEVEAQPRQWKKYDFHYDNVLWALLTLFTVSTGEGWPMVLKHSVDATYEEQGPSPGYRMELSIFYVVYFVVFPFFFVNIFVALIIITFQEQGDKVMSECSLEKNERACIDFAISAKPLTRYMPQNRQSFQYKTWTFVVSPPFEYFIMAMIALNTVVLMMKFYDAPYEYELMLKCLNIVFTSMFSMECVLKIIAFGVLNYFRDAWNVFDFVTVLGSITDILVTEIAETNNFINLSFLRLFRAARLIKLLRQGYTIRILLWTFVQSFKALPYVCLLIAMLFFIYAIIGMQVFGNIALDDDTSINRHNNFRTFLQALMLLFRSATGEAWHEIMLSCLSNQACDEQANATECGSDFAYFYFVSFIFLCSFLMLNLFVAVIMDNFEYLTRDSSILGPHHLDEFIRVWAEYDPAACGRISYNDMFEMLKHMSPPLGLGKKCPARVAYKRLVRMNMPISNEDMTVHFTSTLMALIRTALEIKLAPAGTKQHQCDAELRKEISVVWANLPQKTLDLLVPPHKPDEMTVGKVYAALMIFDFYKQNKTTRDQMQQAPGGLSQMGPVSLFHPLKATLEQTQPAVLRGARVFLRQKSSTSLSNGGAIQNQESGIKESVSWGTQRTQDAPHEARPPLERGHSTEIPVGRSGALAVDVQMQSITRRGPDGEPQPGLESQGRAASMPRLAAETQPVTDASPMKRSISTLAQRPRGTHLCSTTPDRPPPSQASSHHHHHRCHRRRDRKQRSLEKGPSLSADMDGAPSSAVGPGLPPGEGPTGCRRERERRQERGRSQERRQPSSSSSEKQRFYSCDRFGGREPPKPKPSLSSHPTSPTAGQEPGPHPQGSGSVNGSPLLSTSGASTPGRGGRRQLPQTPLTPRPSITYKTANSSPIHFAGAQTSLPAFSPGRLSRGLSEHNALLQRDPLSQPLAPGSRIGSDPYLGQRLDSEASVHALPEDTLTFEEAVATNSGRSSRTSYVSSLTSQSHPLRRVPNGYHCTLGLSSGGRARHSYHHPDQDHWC

As for `CSCC[C@@H]1NC(=O)[C@H](CC(C)C)NC(=O)[C@H](CCCNC(=N)N)NC(=O)[C@H](CO)NC(=O)[C@@H]2CSSC[C@@H]3NC(=O)[C@H](CO)NC(=O)CNC(=O)[C@H]([C@@H](C)O)NC(=O)[C@H](CSSC[C@H](N)C(=O)N[C@@H](CCCCN)C(=O)NCC(=O)N[C@@H](CCCCN)C(=O)NCC(=O)N[C@@H](C)C(=O)N[C@@H](CCCCN)C(=O)N2)NC(=O)[C@H](CSSC[C@@H](C(N)=O)NC(=O)[C@H](CCCCN)NC(=O)CNC(=O)[C@H](CO)NC(=O)[C@H](CCCNC(=N)N)NC3=O)NC(=O)[C@H](CC(=O)O)NC(=O)[C@H](Cc2ccc(O)cc2)NC1=O` [MVIIA, ω-conotoxin MVIIA, reference compound], the “particle size (dynamic light scattering)” value in data set [1] came to 48.74 ± 16.07 nm. Moreover, the “reduction of ICa amplitude” value in data set [2] is reported as 100.00 ± 0.00%. Moreover, the “effect on coordinated locomotion” value in data set [3] was “significant at 30–60 min and gradually decreased from 2 to 4 h”. Moreover, the “tremor intensity (4-point scale 0-3)” value in data set [4] is on record as “highest tremor intensity at 30–60 min, after which it gradually decreased”.
For the compound `CCCCCCCCCCCCCC(=O)N[C@H]1CSSC[C@@H]2NC(=O)[C@@H]3CSSC[C@@H](C(N)=O)NC(=O)[C@H](CCCCN)NC(=O)CNC(=O)[C@H](CO)NC(=O)[C@H](CCCNC(=N)N)NC(=O)[C@H](CSSC[C@H](NC(=O)[C@H](CCCCN)NC(=O)[C@H](C)NC(=O)CNC(=O)[C@H](CCCCN)NC(=O)CNC(=O)[C@H](CCCCN)NC1=O)C(=O)N[C@@H](CO)C(=O)N[C@@H](CCCNC(=N)N)C(=O)N[C@@H](CC(C)C)C(=O)N[C@@H](CCSC)C(=O)N[C@@H](Cc1ccc(O)cc1)C(=O)N[C@@H](CC(=O)O)C(=O)N3)NC(=O)[C@H](CO)NC(=O)CNC(=O)[C@H]([C@@H](C)O)NC2=O` [Myr-MVIIA], in data set [2], half-maximal inhibition (IC50) required 92.1 nM and the “reduction of ICa amplitude” value was found to be 66.83 ± 0.16%. For the same compound, the “effect on coordinated locomotion” value in data set [3] was “did not affect coordinated locomotion”. In data set [4], the “tremor intensity (4-point scale 0-3)” value was “no tremor symptoms”. Also, the share remaining (as a rule, what is left of the initial amount, in per cent) at 24 h in data set [5] worked out at 67.8%.
